Experimental data: patent publication US11149031B2, “Substituted N-(3-fluoropropyl)-pyrrolidine compounds, processes for their preparation and therapeutic uses thereof” (SANOFI, priority 2016, dated 2021)

Experiments:
[1] = target: His6-ERα298-554 Y537S mutant (ERα ligand-binding domain) (Homo sapiens (Human), UniProt P03372, Y537S); test: Test A: biochemical antagonist activity, LanthaScreen TR-FRET ERα coactivator assay, Y537S mutant; conditions: protocol with 3 nM estradiol; read-out: Antagonism Y537S IC50
Experimental: (§1) Test A: Biochemical Antagonist Activity on Wild Type (WT) and Mutants
(§2) Estrogen Receptors Test A involves measuring the in vitro antagonist activity of the compounds of the invention on estrogen receptors.
(§3) The measurements of the antagonist activities were made using an estrogen receptor coactivator assay as described hereunder.
(§4) Antagonistic potency of compounds was evaluated using LanthaScreen® TR-FRET ERα Coactivator Assay (ThermoFisher) with modifications. […] The assay works in a homogeneous mix-and-read format. In a typical experiment, a 4 μL mixture of 0.5 nM His6-ERα298-554, 0.5 nM Tb-labeled His6 antibody, 250 nM PGC1a peptide, and 3 nM estradiol (or 10 nM estradiol) in 100 mM potassium phosphate, pH 7.4, 0.01% Tween-20, 0.02% NaN3, 5 mM DTT, was added to 40 nL test compound in DMSO and incubated overnight at room temperature. The TR-FRET 520:495 nm emission ratio was calculated and used to determine the IC50 value from a dose response curve fit to the 4-parameter logistic equation.

ERα in MCF7 cells = ERα in MCF7 cells (Homo sapiens (Human), UniProt P03372); test: Test C: estrogen receptor degradation activity, ERα in cell western assay in MCF7 cells; type: cell-based; conditions: for DC50: 4 hours post compound addition, ERα in cell western, read-out: Degradation IC50; for % Degradation at 3 μM: 4 hours, relative to fulvestrant
Experimental: Test C: Estrogen Receptor Degradation Activity
Test C involves measuring the in vitro degradation activity of the compounds of the invention.
The measurements of the degradation activities were made using abreast cancer cell ERα in cell western assay as described hereunder.
MCF7 cells (ATCC) were seeded in 384 wells microplate (collagen coated) at concentration of >9990 cells/30 μL per well in red phenol free MEM alpha medium (invitrogen) containing 5% charcoal dextran striped FBS. The following day, 9 points serial 1:5 dilution of each compound were added to the cells in 2.5 μL at final concentrations ranging from 3-0.000018 μM or 0.1 μM for fulvestrant (using as positive control). At 4 hours post compounds addition the cells were fixed by adding 25 μL of formalin (final concentration 5% formalin containing 0.1% triton) for 10 minutes at room temperature and then washed twice with PBS. Then, 50 μL of LI-COR blocking buffer containing 0.1% Triton was added to plate for 30 minutes at room temperature. LI-COR blocking buffer was removed and cells were incubated overnight at cold room with 50 μL anti-ER rabbit monoclonal antibody (Thermo scientific MA1-39540) diluted at 1:>999 in LI-COR blocking buffer containing 0.1% tween-20. Wells which were treated with blocking but no antibody were used as background control. Wells were washed twice with PBS (0.1% tween-20) and incubated at 37° C. for 60 minutes in LI-COR (0.1% tween-20) containing goat anti-rabbit antibody Alexa 488 (1:>999) and Syto-64 a DNA dye (2 μM final concentration). Cells were then washed 3 times in PBS and scanned in ACUMEN explorer (TTP-Labtech). Integrated intensities in the green fluorescence and red fluorescence were measured to determine the levels of ERα and DNA respectively.

[2] = target: His6-ERα298-554 WT (ERα ligand-binding domain) (Homo sapiens (Human), UniProt P03372); test: Test A: biochemical antagonist activity, LanthaScreen TR-FRET ERα coactivator assay, WT; conditions: protocol with 3 nM estradiol; read-out: Antagonism WT IC50
Experimental: as §1, §2, §3, §4

[3] = target: His6-ERα298-554 D538G mutant (ERα ligand-binding domain) (Homo sapiens (Human), UniProt P03372, D538G); test: Test A: biochemical antagonist activity, LanthaScreen TR-FRET ERα coactivator assay, D538G mutant; conditions: protocol with 3 nM estradiol; read-out: Antagonism D538G IC50
Experimental: as §1, §2, §3, §4

Chain of His6-ERα298-554 Y537S mutant (ERα ligand-binding domain) (P03372 298-554 Y537S): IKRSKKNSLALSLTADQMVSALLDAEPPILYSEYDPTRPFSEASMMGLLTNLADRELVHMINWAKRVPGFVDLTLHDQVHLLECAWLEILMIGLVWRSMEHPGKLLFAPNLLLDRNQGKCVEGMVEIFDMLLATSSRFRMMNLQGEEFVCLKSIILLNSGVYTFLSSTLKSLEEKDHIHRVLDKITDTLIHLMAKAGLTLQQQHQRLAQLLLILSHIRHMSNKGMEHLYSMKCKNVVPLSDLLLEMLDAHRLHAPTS
Chain of His6-ERα298-554 WT (ERα ligand-binding domain) (P03372 298-554): as the sequence (P03372 298-554 Y537S) above, with S240Y counted along it
Chain of ERα in MCF7 cells (P03372 whole entry): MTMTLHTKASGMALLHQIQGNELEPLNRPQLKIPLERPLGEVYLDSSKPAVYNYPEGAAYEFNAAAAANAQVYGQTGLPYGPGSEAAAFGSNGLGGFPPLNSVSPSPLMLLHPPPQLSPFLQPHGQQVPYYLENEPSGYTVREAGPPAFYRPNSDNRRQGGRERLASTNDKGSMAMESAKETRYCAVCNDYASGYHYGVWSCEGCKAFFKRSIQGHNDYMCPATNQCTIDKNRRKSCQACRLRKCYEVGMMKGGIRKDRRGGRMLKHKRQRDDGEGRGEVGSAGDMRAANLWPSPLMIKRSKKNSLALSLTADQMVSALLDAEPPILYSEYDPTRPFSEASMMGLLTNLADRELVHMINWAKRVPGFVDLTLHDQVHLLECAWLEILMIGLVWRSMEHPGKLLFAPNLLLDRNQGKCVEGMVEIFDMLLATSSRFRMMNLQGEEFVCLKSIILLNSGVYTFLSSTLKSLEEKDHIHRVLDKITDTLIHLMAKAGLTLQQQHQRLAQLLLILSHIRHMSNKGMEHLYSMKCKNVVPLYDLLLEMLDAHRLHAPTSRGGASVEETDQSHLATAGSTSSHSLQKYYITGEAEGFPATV
Chain of His6-ERα298-554 D538G mutant (ERα ligand-binding domain) (P03372 298-554 D538G): as the sequence (P03372 298-554 Y537S) above, with S240Y, D241G counted along it

## Oc1ccc2c(c1F)OCCC(c1ccc3cc[nH]c3c1)=C2c1ccc(O[C@H]2CCN(CCCF)C2)cc1 [Example 131, 9-fluoro-5-[4-[(3S)-1-(3-fluoropropyl)pyrrolidin-3-yl]oxyphenyl]-4-(1H-indol-6-yl)-2,3-dihydro-1-benzoxepin-8-ol]
[1]
  IC50: 276 nM
ERα in MCF7 cells
  DC50: 3 nM
  % Degradation at 3 μM: 83%
[2]
  IC50: 19 nM
[3]
  IC50: 340 nM

## Oc1ccc2c(c1F)OCCC(c1ccc3c(c1)NCC3)=C2c1ccc(O[C@H]2CCN(CCCF)C2)cc1 [Example 132, 9-fluoro-5-[4-[(3S)-1-(3-fluoropropyl)pyrrolidin-3-yl]oxyphenyl]-4-indolin-6-yl-2,3-dihydro-1-benzoxepin-8-ol]
[1]
  IC50: 334 nM
ERα in MCF7 cells
  DC50: 2 nM
  % Degradation at 3 μM: 88%
[2]
  IC50: 28 nM
[3]
  IC50: 473 nM

## Oc1ccc2c(c1F)OCCC(c1cccc3[nH]ccc13)=C2c1ccc(O[C@H]2CCN(CCCF)C2)cc1 [Example 133, 9-fluoro-5-[4-[(3S)-1-(3-fluoropropyl)pyrrolidin-3-yl]oxyphenyl]-4-(1H-indol-4-yl)-2,3-dihydro-1-benzoxepin-8-ol]
[1]
  IC50: 39 nM
ERα in MCF7 cells
  DC50: 2 nM
  % Degradation at 3 μM: 83%
[2]
  IC50: 4 nM
[3]
  IC50: 64 nM

## Oc1ccc2c(c1F)OCCC(c1cccc3c1CCN3)=C2c1ccc(O[C@H]2CCN(CCCF)C2)cc1 [Example 134, 9-fluoro-5-[4-[(3S)-1-(3-fluoropropyl)pyrrolidin-3-yl]oxyphenyl]-4-indolin-4-yl-2,3-dihydro-1-benzoxepin-8-ol]
[1]
  IC50: 225 nM
ERα in MCF7 cells
  DC50: 3 nM
  % Degradation at 3 μM: 85%
[2]
  IC50: 19 nM
[3]
  IC50: 328 nM

## Cc1cc2c(cc1O)OCCC(c1cccc(Cl)c1C)=C2c1ccc(O[C@H]2CCN(CCCF)C2)cc1 [Example 135, 4-(3-chloro-2-methyl-phenyl)-5-[4-[(3S)-1-(3-fluoropropyl)pyrrolidin-3-yl]oxyphenyl]-7-methyl-2,3-dihydro-1-benzoxepin-8-ol]
[1]
  IC50: 352 nM
ERα in MCF7 cells
  DC50: 3 nM
  % Degradation at 3 μM: 87%
[2]
  IC50: 21 nM
[3]
  IC50: 591 nM

## Cc1cc2c(cc1O)OCCC(c1cccc(O)c1)=C2c1ccc(O[C@H]2CCN(CCCF)C2)cc1 [Example 136, 5-[4-[(3S)-1-(3-fluoropropyl)pyrrolidin-3-yl]oxyphenyl]-4-(3-hydroxyphenyl)-7-methyl-2,3-dihydro-1-benzoxepin-8-ol]
[1]
  IC50: 44 nM
ERα in MCF7 cells
  DC50: 1 nM
  % Degradation at 3 μM: 79%
[2]
  IC50: 4 nM
[3]
  IC50: 59 nM

## Cc1cc2c(cc1O)OCCC(c1ccc3c(c1)CCN3)=C2c1ccc(O[C@H]2CCN(CCCF)C2)cc1 [Example 137, 5-[4-[(3S)-1-(3-fluoropropyl)pyrrolidin-3-yl]oxyphenyl]-4-indolin-5-yl-7-methyl-2,3-dihydro-1-benzoxepin-8-ol]
[1]
  IC50: 1220 nM
ERα in MCF7 cells
  DC50: 5 nM
  % Degradation at 3 μM: 75%
[2]
  IC50: 250 nM
[3]
  IC50: 1710 nM

## Cc1cc2c(cc1O)OCCC(c1ccc3[nH]ccc3c1)=C2c1ccc(O[C@H]2CCN(CCCF)C2)cc1 [Example 139, 5-[4-[(3S)-1-(3-fluoropropyl)pyrrolidin-3-yl]oxyphenyl]-4-(1H-indol-5-yl)-7-methyl-2,3-dihydro-1-benzoxepin-8-ol]
[1]
  IC50: 819 nM
ERα in MCF7 cells
  DC50: 9 nM
  % Degradation at 3 μM: 73%
[2]
  IC50: 68 nM
[3]
  IC50: 1170 nM

## Cc1ccc(C2=C(c3ccc(O[C@H]4CCN(CCCF)C4)cc3)c3cc(C)c(O)cc3OCC2)c(F)c1 [Example 140, 4-(2-fluoro-4-methyl-phenyl)-5-[4-[(3S)-1-(3-fluoropropyl)pyrrolidin-3-yl]oxyphenyl]-7-methyl-2,3-dihydro-1-benzoxepin-8-ol]
[1]
  IC50: 542 nM
ERα in MCF7 cells
  DC50: 3 nM
  % Degradation at 3 μM: 85%
[2]
  IC50: 36 nM
[3]
  IC50: 644 nM

## Oc1cccc(C2=C(c3ccc(O[C@H]4CCN(CCCF)C4)cc3)c3ccc(O)cc3SCC2)c1 [Example 158, 5-[4-[(3S)-1-(3-fluoropropyl)pyrrolidin-3-yl]oxyphenyl]-4-(3-hydroxyphenyl)-2,3-dihydro-1-benzothiepin-8-ol]
[1]
  IC50: 3 nM
ERα in MCF7 cells
  DC50: 0.2 nM
  % Degradation at 3 μM: 88%
[2]
  IC50: 1 nM
[3]
  IC50: 4 nM

## Oc1ccc2c(c1)SCCC(c1ccc(F)cc1Cl)=C2c1ccc(O[C@H]2CCN(CCCF)C2)cc1 [Example 159, 4-(2-chloro-4-fluoro-phenyl)-5-[4-[(3S)-1-(3-fluoropropyl)pyrrolidin-3-yl]oxyphenyl]-2,3-dihydro-1-benzothiepin-8-ol]
[1]
  IC50: 10 nM
ERα in MCF7 cells
  DC50: 0.5 nM
  % Degradation at 3 μM: 89%
[2]
  IC50: 3 nM
[3]
  IC50: 17 nM

## Oc1ccc2c(c1)SCCC(c1ccc3[nH]ccc3c1)=C2c1ccc(O[C@H]2CCN(CCCF)C2)cc1 [Example 160, 5-[4-[(3S)-1-(3-fluoropropyl)pyrrolidin-3-yl]oxyphenyl]-4-(1H-indol-5-yl)-2,3-dihydro-1-benzothiepin-8-ol]
[1]
  IC50: 8 nM
ERα in MCF7 cells
  DC50: 0.2 nM
  % Degradation at 3 μM: 75%
[2]
  IC50: 3 nM
[3]
  IC50: 13 nM

## Oc1ccc2c(c1)SCCC(c1ccc(Cl)c(F)c1)=C2c1ccc(O[C@H]2CCN(CCCF)C2)cc1 [Example 161, 4-(4-chloro-3-fluoro-phenyl)-5-[4-[(3S)-1-(3-fluoropropyl)pyrrolidin-3-yl]oxyphenyl]-2,3-dihydro-1-benzothiepin-8-ol]
[1]
  IC50: 22 nM
ERα in MCF7 cells
  DC50: 0.7 nM
  % Degradation at 3 μM: 93%
[2]
  IC50: 6 nM
[3]
  IC50: 31 nM

## Cc1c(Cl)cccc1C1=C(c2ccc(O[C@H]3CCN(CCCF)C3)cc2)c2ccc(O)cc2SCC1 [Example 163, 4-(3-chloro-2-methyl-phenyl)-5-[4-[(3S)-1-(3-fluoropropyl)pyrrolidin-3-yl]oxyphenyl]-2,3-dihydro-1-benzothiepin-8-ol]
[1]
  IC50: 19 nM
ERα in MCF7 cells
  DC50: 0.6 nM
  % Degradation at 3 μM: 94%
[2]
  IC50: 5 nM
[3]
  IC50: 24 nM

## Cc1cc(F)ccc1C1=C(c2ccc(O[C@H]3CCN(CCCF)C3)cc2)c2ccc(O)cc2SCC1 [Example 165, 4-(4-fluoro-2-methyl-phenyl)-5-[4-[(3S)-1-(3-fluoropropyl)pyrrolidin-3-yl]oxyphenyl]-2,3-dihydro-1-benzothiepin-8-ol]
[1]
  IC50: 8 nM
ERα in MCF7 cells
  DC50: 0.2 nM
  % Degradation at 3 μM: 90%
[2]
  IC50: 3 nM
[3]
  IC50: 11 nM

## Oc1ccc2c(c1)SCCC(c1ccc(Cl)cc1F)=C2c1ccc(O[C@H]2CCN(CCCF)C2)cc1 [Example 167, 4-(4-chloro-2-fluoro-phenyl)-5-[4-[(3S)-1-(3-fluoropropyl)pyrrolidin-3-yl]oxyphenyl]-2,3-dihydro-1-benzothiepin-8-ol]
[1]
  IC50: 16 nM
ERα in MCF7 cells
  DC50: 0.5 nM
  % Degradation at 3 μM: 87%
[2]
  IC50: 5 nM
[3]
  IC50: 26 nM

## Oc1ccc2c(c1)SCCC(c1cccc(F)c1Cl)=C2c1ccc(O[C@H]2CCN(CCCF)C2)cc1 [Example 168, 4-(2-chloro-3-fluoro-phenyl)-5-[4-[(3S)-1-(3-fluoropropyl)pyrrolidin-3-yl]oxyphenyl]-2,3-dihydro-1-benzothiepin-8-ol]
[1]
  IC50: 9 nM
ERα in MCF7 cells
  DC50: 0.7 nM
  % Degradation at 3 μM: 86%
[2]
  IC50: 3 nM
[3]
  IC50: 14 nM

## Oc1ccc(C2=C(c3ccc(O[C@H]4CCN(CCCF)C4)cc3)c3ccc(O)cc3SCC2)c(F)c1 [Example 169, 4-(2-fluoro-4-hydroxy-phenyl)-5-[4-[(3S)-1-(3-fluoropropyl)pyrrolidin-3-yl]oxyphenyl]-2,3-dihydro-1-benzothiepin-8-ol]
[1]
  IC50: 3 nM
ERα in MCF7 cells
  DC50: 0.2 nM
  % Degradation at 3 μM: 85%
[2]
  IC50: 2 nM
[3]
  IC50: 5 nM
